From patent publication US20180072675A1, “ANTIMICROBIAL PYRIDINOHYDRAZIDE AND HYDRAZOMETHYLPYRIDINE-BASED AGENTS” (Board of Supervisors of Louisiana State University and …, priority 2015, published 2018) come the findings set out here.

Test [1] deals with Candida albicans ATCC Accession No. 10231. Kind of test: Checkerboard synergy assay with fluconazole. In kind it is cell-based. The method, then: Considering that two different modes of activity (cidal and static) were observed depending on the structural motifs present in our analogs, we performed a series of checkerboard assays to determine if representative active compounds were in fact acting in synergy with the azole, fluconazole. Each of these assays tested multiple concentrations of the selected analog in the presence of multiple concentrations of fluconazole. All checkerboard assays were prepared in 96-well plates. 200 μl of previously prepared drug solutions were added to each well in column 2. Using a multichannel pipette, 100 μl from each well in column 2 was serially diluted (1:2) horizontally across the plate, stopping at column 10. Contents of each well were mixed thoroughly. Column 11 was reserved for fluconazole MIC control and contained no other drug. 100 μl of media was added to each well, column 2-10. Each well was mixed thoroughly with a multichannel pipette. 100 μl was then removed and discarded from these wells. 100 μl of previously prepared fluconazole dilution was added to each well in row B. Using a multichannel pipette, 100 μl from each well was serially diluted (1:2) vertically down the plate, stopping at row F. Contents of each well were mixed thoroughly. Row G was reserved for tested drug MIC control and contained no fluconazole. Well G11 contained neither drug and served as a drug-free growth control. The final 100 μl from each well in row F was discarded.
The fungal samples were prepared from glycerol stocks of Candida albicans ATCC Accession No. 10231. The inoculum's concentration was adjusted to a McFarland standard between 0.08 and 0.12. Inoculum was then diluted at a ratio of 1:37.5 in buffered media. 100 μl of inoculum-media solution was added to each well. Following inoculation, the 96-well plates were wrapped in parafilm to prevent evaporation and incubated for overnight at 35° C. After 18 h, the wells showing growth were recorded.
Synergistic activity was determined based on the MIC read from these plates. The fractional inhibitory concentration (FIC) for a given well is the ratio of the minimum inhibitory concentration of one drug A in the presence another drug B to the minimum inhibitory concentration with only drug A. The FIC was calculated for the test drug in each of the wells along the growth/no-growth interface at varying concentrations of fluconazole, then these values were averaged to determine the average FIC for the test drug. The same process was used to calculate the average FIC for fluconazole at varying concentrations of the test drug. The sum of these two FICs gives the FIC index which can be used to determine the synergistic effect between the two drugs (Hsieh et al., Diagn. Microbiol. Infect. Dis. (1993) 16: 343-349). An FIC index value less than 1 indicated synergistic interactions between the two drugs while an FIC index value greater than or equal to 1 indicated antagonistic interactions.

The subject of the next test is protozoal proliferation. Nature of the test: Protozoal proliferation. The test is classed as cell-based. The note with it: FIG. 27.
The test system of test [2] is C. albicans clinical isolate 17 (TW17). Kind of test: MIC80 fungal growth inhibition, clinical isolate TW17. In kind it is cell-based, Candida albicans. Conditions: Candida albicans; Azole-resistant; >80% growth inhibition, visual scoring; read-out: MIC80 TW17. The method, then: (§1) The antifungal activity of the pyridinohydrazide and hydrazomethylpyridine derivatives described in the s were evaluated in vitro using Candida albicans (ATCC Accession No. 10231) and Candida glabrata (ATCC Accession No. 48435). In addition, the compounds were evaluated for activity against two previously-described clinical isolates of C. albicans known to have developed azole-resistance. These isolates were obtained over a two year period from a single AIDS patient and the development of the azole-resistance mechanisms have been extensively characterized (White T C. Antimicrob. Agents Chemother. (1997) 41: 1482-1487). MIC assays were performed on the clinical isolates 1 and 17 (annotated TW1 and TW17, respectively), where isolate 1 was used as an azole-susceptible control and isolate 17 was considered azole-resistant. All assays were done in accordance with NCCLS reference documents (Clinical Laboratory and Standards Institute. Reference method for Broth Dilution Antifungal Susceptibility Testing of Yeasts: Approved Standard. M27-A3 2010; 28). The results of these screenings are summarized in Tables 1-9 (Examples 20-27) as the minimum concentrations that inhibited more than 80% of fungal growth (MIC80) as compared to positive controls containing 1% DMSO. Assays were performed in HEPES-buffered RPMI-1640 media. All MIC screens used a visual scoring method as opposed to spectroscopic analysis, due to the altered absorbance spectra of many of the compounds.

The subject of a further test is Candida strain TW17. Nature of the test: Time-kill assay. Conditions: four times the MIC for TW17, 48 h. The test is classed as cell-based, Candida albicans. The method, then:
FIG. 9 illustrates time-kill assays, for representative analogs that were active against the azole-resistant TW17, to determine the cidal or static nature of the analog tested. 100 μl of each sample was spread onto YM agar plates with a sterile bent spreading rod. Plates were incubated at 35° C. overnight and colonies were then counted on each plate.
One of the objectives of this study was to determine the cidal or static nature of the analogs that were active against such as TW17, the azole-resistant clinical isolate. Azoles affect Candida spp. by inhibiting ergosterol biosynthesis, and ultimately prevent their reproduction. This effect has led to the classification of azoles as fungistats. Determining the fungistatic or fungicidal nature of the synthesized compounds of the present disclosure allows a comparison to azoles, in addition to improving the understanding of how the structural motifs might lend toward an alternate mechanism of action. Therefore, time-kill assays were performed using the representative analogs that were active against the azole-resistant TW17 at concentrations at or below 8 μg/mL.
Solid drugs were dissolved in DMSO to a concentration of 10 mg/ml. This stock solution was then further diluted in water to the desired experimental concentration, determined to be four times that of the MIC for the Candida strain TW17 (as reported in the Tables).
Individual colonies of TW17 were suspended in 5 ml of sterile water and adjusted to achieve a McFarland reading between 0.08 and 0.12. The inoculum was then further diluted in sterile water at a ratio of 1:100. Three […] tissue culture tubes were prepared by combining 2.5 ml of above diluted inoculum, 21.7 ml of HEPES buffered RPMI-1640 media, and 800 μl of experimental drug dilution. A “Growth Control” tube was prepared by combining 2.5 ml of inoculum, 21.7 HEPES buffered RPMI-1640 media, and 800 μl of water-DMSO solution equal to the DMSO concentration of the experimental drug dilution. A “Sterile Control” tube was prepared by combining 24.2 ml of HEPES-buffered RPMI-1640 media and 800 μl of water-DMSO solution as in the “Growth Control”. All tubes were incubated for 48 hours at 35° C., 50 rpm. 500 μl samples were taken from the tubes at time points of predetermined intervals during this incubation.
Time points for the “Kill-Curve” and “Growth Control” tubes were taken at 0, 1, 2, 4, 6, 8, 24, and 48 h after the start of incubation. Time points for “Sterile Control” were taken at 0 and 48 hours. Each time point sample was serially diluted 1:10 in sterile 0.9% NaCl solution up to 5 times. 100 μl of each sample was spread onto YM agar plates with a sterile bent spreading rod. Plates were incubated at 35° C. overnight and colonies were then counted on each plate. Colonies on plates from diluted time points were used to estimate uncountable undiluted samples. The number of colonies in undiluted samples was estimated to be 10^n times greater than the diluted sample, where n was the number of dilutions made.

Test [3] deals with Candida albicans (ATCC Accession No. 10231). Kind of test: MIC80 fungal growth inhibition, C. albicans ATCC 10231. In kind it is cell-based. Conditions: Candida albicans, ATCC10231; Azole-susceptible; >80% growth inhibition, visual scoring; read-out: MIC80 C. albicans ATCC No. 10231. How it is done:
as §1

Test [4] has as its system C. albicans clinical isolate 1 (TW1). Kind of test: MIC80 fungal growth inhibition, clinical isolate TW1. Conditions: Candida albicans; Azole-susceptible; >80% growth inhibition, visual scoring; read-out: MIC80 TW1. The test is classed as cell-based, Candida albicans. How it is done:
as §1

Test [5] deals with Candida glabrata (ATCC Accession No. 48435). Nature of the test: MIC80 fungal growth inhibition, C. glabrata ATCC 48435. In kind it is cell-based. The note with it: Nakaseomyces glabratus, ATCC48435; Azole-resistant; >80% growth inhibition, visual scoring; read-out: MIC80 C. glabrata ATCC No. 48435. How it is done: as §1

In brackets after ≈: the same amount, converted by molar mass. Entries after “also recorded” stand apart in the source; their conditions may differ.

Turning to `O=C(N/N=C/c1cc(Br)ccc1O)c1ccccn1` [AR5, (E)-N′-(5-bromo-2-hydroxybenzylidene)picolinohydrazide], the “FIC Fluc” value in test [1] (average FIC of fluconazole at varying concentrations of the test drug) is given as 1.00. In test [1] (average FIC of the test drug at varying concentrations of fluconazole), the “FIC Test” value stood at 0.90. Besides, the “Activity (interaction with fluconazole)” value in test [1] (from FIC index) was “Antagonistic”. In addition, the “FIC Index” value in test [1] (sum of the two FICs, <1 synergistic, >=1 antagonistic) worked out at 1.90. In the test with protozoal proliferation, the “effect on protozoal proliferation” value is listed as “reduce protozoal proliferation”. The MIC80 is 4 µg/mL (≈ 12.5 µM) in test [2], 1 µg/mL (≈ 3.12 µM) in test [3], 2 µg/mL (≈ 6.25 µM) in test [4] and 4 µg/mL (≈ 12.5 µM) in test [5]. In addition, the “Cidal vs Static” value in the test with Candida strain TW17 is given as “fungicidal; also recorded: Cidal”.
